US9879034B2, “Near-infrared absorption composition, cured film, near-infrared cut filter, solid-state imaging device, infrared sensor, and compound” (FUJIFILM Corporation, priority 2015, dated 2018)

How the values were obtained:
[1] = Maximum absorption wavelength of compound solution (UV-1800); format: physicochemical; design: unit: nm; settings: dissolved in tetrahydrofuran, 1 g/L
Method: According to the invention, the value of the maximum absorption wavelength is obtained as follows: a compound represented by Formula (1) is dissolved in tetrahydrofuran to prepare a solution with a concentration of 1 g/L, and an absorption spectrum of the solution obtained by dissolving the compound is measured in a wavelength range of 350 nm to 1,200 nm using UV-1800 manufactured by Shimadzu Corporation.
Each compound was dissolved in tetrahydrofuran to prepare a solution with a concentration of 1 g/L. Next, the absorption spectrum of the solution obtained by dissolving each compound was measured using UV-1800 manufactured by Shimadzu Corporation, and a maximum absorption wavelength (λmax) was measured.

[2] = Solubility of compound to solvent at 25° C.; format: physicochemical; settings: for Solubility Cyclohexanone / Solubility PGMEA / Solubility Toluene: 25° C.; for Solubility PGMEA: propylene glycol monomethyl ether acetate; for Solubility Cyclohexanone / solubility of the compound to each solvent (in words): cyclohexanone; for solubility of the compound to each solvent (in words): PGMEA; for Solubility Toluene / solubility of the compound to each solvent (in words): toluene
Method: The solubility of each compound to each solvent (cyclohexanone, propylene glycol monomethyl ether acetate (PGMEA), and toluene) at 25° C. was evaluated based on the following standards.
A: The solubility of the compound to the solvent at 25° C. is 2 mass % or greater.

## C=CCCCCCCCCOc1ccccc1B1N=c2/c(=C3\C(=O)C(c4ccc5cccc6c5c4NB(c4ccccc4OCCCCCCCCC=C)N6)=C3O)ccc3cccc(c23)N1 [SQ-11]
[1]
  Maximum Absorption Wavelength: 828
[2]
  Solubility Cyclohexanone: A (The solubility of the compound to the solvent at 25 °C is 2 mass % or greater.)
  Solubility PGMEA: B (The solubility of the compound to the solvent at 25 °C is 1 mass % to less than 2 mass %.)
  Solubility Toluene: A (The solubility of the compound to the solvent at 25 °C is 2 mass % or greater.)

## CC(C)CCCC(C)CCc1ccc(B2N=c3/c(=C4\C(=O)C(c5ccc6cccc7c6c5NB(c5ccc(CCC(C)CCCC(C)C)cc5)N7)=C4O)ccc4cccc(c34)N2)cc1 (racemic) [SQ-2]
[1]
  Maximum Absorption Wavelength: 823
[2]
  Solubility Cyclohexanone: A (The solubility of the compound to the solvent at 25 °C is 2 mass % or greater.)
  Solubility PGMEA: A (The solubility of the compound to the solvent at 25 °C is 2 mass % or greater.)
  Solubility Toluene: A (The solubility of the compound to the solvent at 25 °C is 2 mass % or greater.)

## COCCOCCOCCOc1ccc(B2N=c3/c(=C4\C(=O)C(c5ccc6cccc7c6c5NB(c5ccc(OCCOCCOCCOC)cc5)N7)=C4O)ccc4cccc(c34)N2)cc1 [SQ-5]
[1]
  Maximum Absorption Wavelength: 823
[2]
  Solubility Cyclohexanone: B (The solubility of the compound to the solvent at 25 °C is 1 mass % to less than 2 mass %.)
  Solubility PGMEA: A (The solubility of the compound to the solvent at 25 °C is 2 mass % or greater.)
  Solubility Toluene: B (The solubility of the compound to the solvent at 25 °C is 1 mass % to less than 2 mass %.)

## CCC1(CC)N=c2/c(=C3\C(=O)C(c4ccc5cccc6c5c4NC(CC)(CC)N6)=C3O)ccc3cccc(c23)N1 [Compound R-2, reference compound]
[1]
  Maximum Absorption Wavelength: 807
[2]
  Solubility Cyclohexanone: C (The solubility of the compound to the solvent at 25 °C is 0.5 mass % to less than 1 mass %.)
  solubility of the compound to each solvent (in words): did not have sufficient solubility
  Solubility PGMEA: C (The solubility of the compound to the solvent at 25 °C is 0.5 mass % to less than 1 mass %.)
  Solubility Toluene: B (The solubility of the compound to the solvent at 25 °C is 1 mass % to less than 2 mass %.)

## CCCCCCCCCC(CCCCCCCCC)Oc1ccc(B2N=c3/c(=C4\C(=O)C(c5ccc6cccc7c6c5NB(c5ccc(OC(CCCCCCCCC)CCCCCCCCC)cc5)N7)=C4O)ccc4cccc(c34)N2)cc1 [SQ-4]
[1]
  Maximum Absorption Wavelength: 823
[2]
  Solubility Cyclohexanone: B (The solubility of the compound to the solvent at 25 °C is 1 mass % to less than 2 mass %.)
  Solubility PGMEA: B (The solubility of the compound to the solvent at 25 °C is 1 mass % to less than 2 mass %.)
  Solubility Toluene: A (The solubility of the compound to the solvent at 25 °C is 2 mass % or greater.)

## CCCCCCCCCCOc1ccccc1B1N=c2/c(=C3\C(=O)C(c4ccc5cccc6c5c4NB(c4ccccc4OCCCCCCCCCC)N6)=C3O)ccc3cccc(c23)N1 [SQ-6]
[1]
  Maximum Absorption Wavelength: 828
[2]
  Solubility Cyclohexanone: B (The solubility of the compound to the solvent at 25 °C is 1 mass % to less than 2 mass %.)
  Solubility PGMEA: B (The solubility of the compound to the solvent at 25 °C is 1 mass % to less than 2 mass %.)
  Solubility Toluene: A (The solubility of the compound to the solvent at 25 °C is 2 mass % or greater.)

## CCCCCCCCCC(CCCCCCCCC)B1N=c2/c(=C3\C(=O)C(c4ccc5cccc6c5c4NB(C(CCCCCCCCC)CCCCCCCCC)N6)=C3O)ccc3cccc(c23)N1 [SQ-7]
[1]
  Maximum Absorption Wavelength: 815
[2]
  Solubility Cyclohexanone: B (The solubility of the compound to the solvent at 25 °C is 1 mass % to less than 2 mass %.)
  Solubility PGMEA: B (The solubility of the compound to the solvent at 25 °C is 1 mass % to less than 2 mass %.)
  Solubility Toluene: B (The solubility of the compound to the solvent at 25 °C is 1 mass % to less than 2 mass %.)

## CC(C)(C)c1ccc(B2N=c3/c(=C4\C(=O)C(c5ccc6cccc7c6c5NB(c5ccc(C(C)(C)C)cc5)N7)=C4O)ccc4cccc(c34)N2)cc1 [Compound R-1, reference compound]
[1]
  Maximum Absorption Wavelength: 827
[2]
  Solubility Cyclohexanone: D (The solubility of the compound to the solvent at 25 °C is less than 0.5 mass %.)
  solubility of the compound to each solvent (in words): did not have sufficient solubility
  Solubility PGMEA: D (The solubility of the compound to the solvent at 25 °C is less than 0.5 mass %.)
  Solubility Toluene: D (The solubility of the compound to the solvent at 25 °C is less than 0.5 mass %.)
